Test results as given in patent US5733896A, “N-(3-fluoro-2-phosphonylmethoxypropyl) derivatives of purine and pyrimidine heterocyclic bases, their preparation and use” (priority 1990, dated 1998).
Values after ≈ are worked out from the molar mass of the structure shown. Read-outs that look alike come from different tables or passages of the source.

Columns and labels:
[1] = test system: retroviruses, such as HIV; settings: cited from earlier work
HIV = settings: cited from earlier work
HIV-1 = experiment: Effect on multiplication of HIV-1 in tissue cultures of MT-4 cells (suppression of cytopathogenic effect); assay type: cell-based
Text: (§1) Effect of compounds of the general formula I on multi-
(§2) plication of HIV-1 in tissue cultures of MT-4 cells
^a Dose, suppressing by 50% the cytopatogenic effect of HIV1 in MT4

[2] = Cytotoxicity: dose decreasing the viability of MT4 cells to one half; assay type: cell-based; settings: human, mt-4 cells
Text: as §1, §2
^b dose, decreasing the viability of MT4 cells to one half;

MSV-induced tumor = experiment: Effect on the evolution of an MSV-induced tumor in newborn NMRI mice; assay type: in vivo
Text: Effect of compounds of the general formula I on the evolution
of an MSV-induced tumor in newborn NMRI mice

Moloney sarcoma virus = settings: experimental animals; cited from earlier work
murine leukemia virus = settings: experimental animals; cited from earlier work
[3] = test system: simian immunodefficiency virus (SIV); settings: experimental animals; cited from earlier work
[4] = Human immunodeficiency virus 1, MT4, HIV-1, MT-4 cells, read-out: ED50 (dose, suppressing by 50% the cytopatogenic effect of HIV1 in MT4 cells)
[5] = read-out: CD50 (dose, decreasing the viability of MT4 cells to one half)

Row | SMILES | effect on HIV in tissue cultures (HIV) | SI (ratio CD50/ED50) (HIV-1; HIV-1, MT-4 cells) | Median day of tumor formation (MSV-induced tumor; dose 1 mg/kg/day) | Median survival time (MSV-induced tumor; dose 1 mg/kg/day) | Median day of tumor formation (MSV-induced tumor; dose 5 mg/kg/day) | Median survival time (MSV-induced tumor; dose 5 mg/kg/day) | Median day of tumor formation (MSV-induced tumor; dose 20 mg/kg/day) | also measured
1 | Nc1ccn([C@H]2CC[C@@H](CO)O2)c(=O)n1 [2',3'-dideoxycytidine] |  |  |  |  |  |  |  | efficiency in the treatment of experimental animals [1]: efficient in the treatment of experimental animals
2 | Cc1cc(-c2ccc(/N=N/c3ccc4c(S(=O)(=O)O)cc(S(=O)(=O)O)c(N)c4c3O)c(C)c2)ccc1/N=N/c1ccc2c(S(=O)(=O)O)cc(S(=O)(=O)O)c(N)c2c1O [Evans Blue] | significant effects in tissue cultures |  |  |  |  |  |  | 
3 | Nc1ncnc2c1ncn2CCOCP(=O)(O)O [IX, reference compound] | have proven its effect | 7.2 | 6.1 | 14.7 days | 10.1 | 17.2 days | > 13 | EC50 (HIV-1; Human immunodeficiency virus 1, MT4, read-out: ED50 (dose, suppressing by 50% the cytopatogenic effect of HIV1 in MT4 cells)): 2 µg/mL (≈ 7.32 µM); CC50 [2]: 14.2 µg/mL (≈ 52 µM); effect on Moloney sarcoma virus (Moloney sarcoma virus): have proven its effect; effect on murine leukemia virus (murine leukemia virus): have proven its effect; effect on simian immunodefficiency virus (SIV) [3]: have proven its effect
4 | Nc1ncnc2c1ncn2CC(CF)OCP(=O)(O)O (racemic) [Compound 1, 9-(RS)-(3-fluoro-2-phosphonylmethoxypropyl)-adenine] |  | > 90 | 5.8 | 10.9 days | 7.5 | 14.4 days | > 13 | EC50 (HIV-1; [4]): 11.2 µg/mL (≈ 36.7 µM); CC50 [2, 5]: > 1000 µg/mL
5 | Nc1nc2c(ncn2CC(CF)OCP(=O)(O)O)c(=O)[nH]1 (racemic) [Compound 2] |  | 50 | 5.2 | 11.7 days | 8.5 | 12.5 days | > 13 | EC50 (HIV-1; [4]): 4.7 µg/mL (≈ 14.6 µM); CC50 [2, 5]: 233 µg/mL (≈ 725 µM); Median survival time (MSV-induced tumor; dose 20 mg/kg/day): 10 days
6 | O=C(O)C1=CC(=C(c2ccc(O)c(C(=O)O)c2)c2ccc(O)c(C(=O)O)c2)C=CC1=O [aurine-tricarboxylic acid] | significant effects in tissue cultures |  |  |  |  |  |  | 
7 | Cc1cn([C@H]2C=C[C@@H](CO)O2)c(=O)[nH]c1=O [2',3'-dideoxy-2',3'-didehydrothymidine] |  |  |  |  |  |  |  | efficiency in the treatment of experimental animals [1]: efficient in the treatment of experimental animals
